The record followed here is paper PMC12486458 (Journal of Enzyme Inhibition and Medicinal Chemistry, 2025).

SMILES strings stand for the structures.

This test deals with U266 multiple myeloma cells. Description: MTT assay. The class given is cell-based. Particulars: Homo sapiens, U-266, 72 h, read-out: U266 IC50. Background: Formazan colour is commonly taken as a measure of viable cells.

As a reminder, the IC50 is the point on the concentration scale where inhibition reaches its midpoint. As to `CC[C@@H]1C(=O)N(C)c2cnc(Nc3ccc(C(=O)NC4CCN(C)CC4)cc3OC)nc2N1C1CCCC1` [BI 2536], the half-inhibitory concentration (IC50) stood at 0.28 ± 0.03 µM.
